This note sets out measurements from the Biogen ADME set (Fang et al. 2023).

The conditions of this data set: for aqueous solubility: pH 6.8.

≈ marks a conversion by molar mass, not a printed value.

Take `Cc1cc(NC(=O)CCc2cnn(C)c2)c2ccccc2n1`: the MDR1-MDCK efflux ratio amounted to 7.68; the intrinsic clearance, human liver microsomes was not above 4.74 mL/min/kg; the intrinsic clearance, rat liver microsomes stood at 25 mL/min/kg; the aqueous solubility was determined as 43.2 µg/mL (≈ 147 µM).
As for `CN(Cc1cnccn1)Cc1nc(N)c2ccccc2n1`, the intrinsic clearance, human liver microsomes came to 15 mL/min/kg and the intrinsic clearance, rat liver microsomes was 458 mL/min/kg.
In the case of `Cc1cccc(NC(=O)CN(C)Cc2nc3ccccc3c(=O)[nH]2)c1C`, the MDR1-MDCK efflux ratio is 17.6; the intrinsic clearance, human liver microsomes is 54 mL/min/kg; the intrinsic clearance, rat liver microsomes was determined as 571 mL/min/kg.
For `Cc1cccc(N(C)Cc2cnc(N(C)C)nc2)n1` the same measures were 0.769, 57.7 mL/min/kg and 1770 mL/min/kg.
Take `c1ccc(-c2nc(CSc3ccc(-n4cccn4)nn3)cs2)cc1`: the MDR1-MDCK efflux ratio was determined as 0.541; the intrinsic clearance, human liver microsomes was determined as 75.1 mL/min/kg; the intrinsic clearance, rat liver microsomes was found to be 420 mL/min/kg.
Consider `CC1=C(C(=O)Nc2cc3cn[nH]c3cc2F)C(c2ccc(C(F)(F)F)cc2)CC(=O)N1` (stereo not drawn), for which the MDR1-MDCK efflux ratio was determined as 56.3; the intrinsic clearance, human liver microsomes stood at 51 mL/min/kg; the intrinsic clearance, rat liver microsomes was 120 mL/min/kg.
In the case of `Cc1ccccc1-c1cc(N)n(Cc2ccccc2)n1`, the intrinsic clearance, human liver microsomes turned out to be 33.2 mL/min/kg and the intrinsic clearance, rat liver microsomes was 302 mL/min/kg.
On to `CCNc1ccnc(-c2cccc(C(=O)NCCCc3cnn(C)c3)c2)n1`, for which the MDR1-MDCK efflux ratio was 39.2; the intrinsic clearance, human liver microsomes came to 26.1 mL/min/kg; the intrinsic clearance, rat liver microsomes worked out at 634 mL/min/kg.
On to `O=C(CCCNC(=O)NC1CCCCC1)Nc1cc(C2CC2)n[nH]1`, for which the aqueous solubility came out at 43.9 µg/mL (≈ 132 µM).
Take `O=C(c1cccc(Nc2ncccn2)c1)N1CCOCC(Cc2cccc3ccncc23)C1` (stereo not drawn): the MDR1-MDCK efflux ratio was 28; the intrinsic clearance, human liver microsomes worked out at 281 mL/min/kg; the intrinsic clearance, rat liver microsomes was 1650 mL/min/kg.
`Cc1cc(-c2ccc(N)nc2)cc(C2CCN(C(=O)CCCc3ccc(F)c(C)c3)CC2)n1`: the MDR1-MDCK efflux ratio amounted to 2.7; the intrinsic clearance, human liver microsomes was 963 mL/min/kg; the intrinsic clearance, rat liver microsomes was 1910 mL/min/kg; the aqueous solubility came out at 8.44 µg/mL (≈ 18.9 µM).
The corresponding values for `Cc1ccc([C@@H]2N[C@@H](Cc3ccccc3)C(=O)N2C)o1` are 0.764, not above 4.74 mL/min/kg, 151 mL/min/kg and 53.3 µg/mL (≈ 197 µM).
Consider `CCOCCNC(=O)c1cccc(-c2cc(F)ccc2OC)c1`, for which the MDR1-MDCK efflux ratio came to 0.525; the intrinsic clearance, human liver microsomes was found to be 130 mL/min/kg; the intrinsic clearance, rat liver microsomes was 819 mL/min/kg.
For `COc1nc2c(cc1CNC(=O)N1CCC[C@@H]1CO)C(=O)N(C1CCCC1)C2`, the MDR1-MDCK efflux ratio was 78.1; the intrinsic clearance, human liver microsomes is 8.55 mL/min/kg; the intrinsic clearance, rat liver microsomes amounted to 69.1 mL/min/kg.
On to `Nc1ccccc1OCCn1ccnc1`, for which the MDR1-MDCK efflux ratio is 0.815; the intrinsic clearance, human liver microsomes amounted to 7.07 mL/min/kg; the intrinsic clearance, rat liver microsomes worked out at 30.6 mL/min/kg; the aqueous solubility stood at 24.7 µg/mL (≈ 121 µM).
On to `N#Cc1ccc(-c2csc(CCN3CCCC3=O)n2)cc1`, for which the MDR1-MDCK efflux ratio turned out to be 0.985; the intrinsic clearance, human liver microsomes is 5.81 mL/min/kg; the intrinsic clearance, rat liver microsomes came out at 67.4 mL/min/kg; the aqueous solubility worked out at 25.1 µg/mL (≈ 84.3 µM).
With `CC(C)Cc1ccccc1CNCc1ccc2[nH]cnc2c1`, the MDR1-MDCK efflux ratio turned out to be 7.25; the intrinsic clearance, human liver microsomes was 55.8 mL/min/kg; the intrinsic clearance, rat liver microsomes was found to be 765 mL/min/kg.
With `CC(C)(C)c1nc(Cn2nnc3ccccc3c2=O)no1`, the MDR1-MDCK efflux ratio was 0.68; the intrinsic clearance, human liver microsomes was not above 4.74 mL/min/kg; the intrinsic clearance, rat liver microsomes amounted to 119 mL/min/kg; the aqueous solubility stood at 34.7 µg/mL (≈ 122 µM).
As to `O=C(NCCCn1ccnc1)N1CC2(CCCC2)c2ccccc21`, the intrinsic clearance, human liver microsomes is 68.9 mL/min/kg; the intrinsic clearance, rat liver microsomes stood at 747 mL/min/kg; the aqueous solubility was found to be 63.1 µg/mL (≈ 194 µM).
As for `C=CC(=O)N1CCC([C@@H]2CCNc3c(C(N)=O)c(-c4ccc(Oc5ccccc5)cc4)nn32)CC1`, the MDR1-MDCK efflux ratio was 50.8; the fraction unbound, human plasma is 0.0931; the fraction unbound, rat plasma worked out at 0.0171; the intrinsic clearance, human liver microsomes came to 57.8 mL/min/kg. For the same compound, the intrinsic clearance, rat liver microsomes was determined as 573 mL/min/kg.
With `Cc1noc2ncc(C(=O)Nc3nc(C4CC4)cs3)cc12`, the MDR1-MDCK efflux ratio turned out to be 0.511; the intrinsic clearance, human liver microsomes was 89.9 mL/min/kg; the intrinsic clearance, rat liver microsomes was determined as 377 mL/min/kg; the aqueous solubility was found to be 11.5 µg/mL (≈ 38.3 µM).
For the compound `CCc1c(C)nn(CCNC(=O)CCc2cnccn2)c1C`, the MDR1-MDCK efflux ratio is 23.4; the intrinsic clearance, human liver microsomes was determined as 64.5 mL/min/kg; the intrinsic clearance, rat liver microsomes stood at 647 mL/min/kg.
For `Cn1c(SCOCc2ccccc2)nnc1C1CC1`, the MDR1-MDCK efflux ratio amounted to 0.57; the intrinsic clearance, human liver microsomes worked out at 27.1 mL/min/kg; the intrinsic clearance, rat liver microsomes came to 271 mL/min/kg.
Take `O=C(Nc1nc(-c2cccnc2)cs1)C1CCCCC1`: the MDR1-MDCK efflux ratio came out at 0.497 and the aqueous solubility amounted to 0.21 µg/mL (≈ 0.731 µM).
On to `NCC(=O)Nc1ccc(-n2nc(C(F)(F)F)cc2-c2ccc3c(ccc4ccccc43)c2)cc1`, for which the MDR1-MDCK efflux ratio was 2.96 and the aqueous solubility worked out at 0.25 µg/mL (≈ 0.543 µM).
For `Oc1ccc(CN2CCN(c3cccc(Cl)c3)CC2)cc1`, the MDR1-MDCK efflux ratio turned out to be 0.451; the intrinsic clearance, human liver microsomes is 33.6 mL/min/kg; the intrinsic clearance, rat liver microsomes was 90 mL/min/kg; the aqueous solubility worked out at 2.2 µg/mL (≈ 7.27 µM).
As to `Cn1ccnc1CCNC(=O)c1cccc2cccnc12`, the MDR1-MDCK efflux ratio is 7.87; the intrinsic clearance, human liver microsomes was 11.5 mL/min/kg; the intrinsic clearance, rat liver microsomes was determined as 150 mL/min/kg; the aqueous solubility was 41.5 µg/mL (≈ 148 µM).
As to `O=C1N[C@@H]2CCN(C(=O)c3ccc(-c4ccccc4)cc3)[C@@H]2C(=O)N1c1ccc(F)cc1`, the MDR1-MDCK efflux ratio is 44.4; the intrinsic clearance, human liver microsomes is not above 4.74 mL/min/kg; the intrinsic clearance, rat liver microsomes was 29.7 mL/min/kg; the aqueous solubility worked out at 31.5 µg/mL (≈ 73.3 µM).
Turning to `Cn1cc(-c2nc(C(F)(F)F)c[nH]2)cn1`, the aqueous solubility was 40.2 µg/mL (≈ 186 µM).
As for `c1cncc(-c2nnc3n2[C@H]2CN(Cc4cccs4)C[C@H]2CC3)c1`, the MDR1-MDCK efflux ratio was 2.69; the intrinsic clearance, human liver microsomes turned out to be 7.21 mL/min/kg; the intrinsic clearance, rat liver microsomes worked out at 343 mL/min/kg.
For the compound `Cc1nnc(NC(=O)c2ccccc2-c2ccc(C(F)(F)F)cc2)s1`, the MDR1-MDCK efflux ratio was found to be 1.45; the intrinsic clearance, human liver microsomes came out at 12.1 mL/min/kg; the intrinsic clearance, rat liver microsomes was determined as 28.3 mL/min/kg; the aqueous solubility came to 1.35 µg/mL (≈ 3.72 µM).
Take `O=C([C@@H]1CCCN1C(=O)NC(c1ccccc1)c1ccccc1)N1CCCCC1`: the MDR1-MDCK efflux ratio amounted to 26.9; the intrinsic clearance, human liver microsomes amounted to 205 mL/min/kg; the intrinsic clearance, rat liver microsomes worked out at 867 mL/min/kg.
For `CC1CCN([C@H](c2ccc(F)cc2)c2ccc([C@@H](C)C(=O)O)cc2-c2ccc(C(F)(F)F)cc2)CC1`, the MDR1-MDCK efflux ratio came out at 1.99; the intrinsic clearance, human liver microsomes is 7.84 mL/min/kg; the intrinsic clearance, rat liver microsomes is 17.7 mL/min/kg; the aqueous solubility turned out to be 39.5 µg/mL (≈ 79.1 µM).
`CN1N=C(SCc2ccc(Cl)cc2Cl)Sc2c1cnn(C)c2=O`: the intrinsic clearance, human liver microsomes stood at 137 mL/min/kg and the intrinsic clearance, rat liver microsomes was found to be 1890 mL/min/kg.
For `Cc1cnc(NCC2(CO)CCCC2)nc1N(C)C`, the MDR1-MDCK efflux ratio was found to be 0.95; the intrinsic clearance, human liver microsomes was 29.7 mL/min/kg; the intrinsic clearance, rat liver microsomes was found to be 1050 mL/min/kg.
In the case of `O=C(C1CCC1)N1CCC(c2ncc(-c3ccc(F)c(F)c3)[nH]2)CC1`, the MDR1-MDCK efflux ratio came out at 3.5; the intrinsic clearance, human liver microsomes amounted to 43.2 mL/min/kg; the intrinsic clearance, rat liver microsomes turned out to be 2740 mL/min/kg; the aqueous solubility was found to be 57.1 µg/mL (≈ 165 µM).
Take `Fc1ccc(CCNc2ncnc3ncccc23)cc1`: the MDR1-MDCK efflux ratio is 2.35; the intrinsic clearance, human liver microsomes was determined as 13.3 mL/min/kg; the intrinsic clearance, rat liver microsomes was 80.5 mL/min/kg.
As to `Cc1cc(C(F)(F)F)nc(N(C)Cc2c(C)noc2C)n1`, the intrinsic clearance, human liver microsomes came out at 91.7 mL/min/kg and the intrinsic clearance, rat liver microsomes is 589 mL/min/kg.
Take `CN(CCOCCOc1ccccc1-c1ccccc1)Cc1ccccc1.O=C(O)C(=O)O`: the MDR1-MDCK efflux ratio was 1.82; the intrinsic clearance, human liver microsomes turned out to be 216 mL/min/kg; the intrinsic clearance, rat liver microsomes was determined as 1520 mL/min/kg; the aqueous solubility is 29 µg/mL.
On to `CN(Cc1ccc2c(c1)OCO2)Cc1ccccc1C#N`, for which the MDR1-MDCK efflux ratio is 0.351; the intrinsic clearance, human liver microsomes amounted to 87.8 mL/min/kg; the intrinsic clearance, rat liver microsomes stood at 4100 mL/min/kg; the aqueous solubility turned out to be 28.1 µg/mL (≈ 100 µM).
For the compound `O=C1NC(c2ccccc2)=N/C1=C/c1ccc2c(c1)OCO2`, the aqueous solubility worked out at 0.31 µg/mL (≈ 1.06 µM).
Take `O=C(Cc1ccc2c(c1)CCC2)Nc1nc2ccccc2o1`: the MDR1-MDCK efflux ratio was 0.499; the intrinsic clearance, human liver microsomes is 113 mL/min/kg; the intrinsic clearance, rat liver microsomes came to 1540 mL/min/kg; the aqueous solubility was found to be 3.63 µg/mL (≈ 12.4 µM).
With `Cc1cc(N(CCO)CCCO)ncc1Br`, the MDR1-MDCK efflux ratio was 0.766; the intrinsic clearance, human liver microsomes was 12.4 mL/min/kg; the intrinsic clearance, rat liver microsomes is 478 mL/min/kg.
`COc1cc(CC(=O)Nc2ccccc2F)ccc1C` gave an aqueous solubility of 26 µg/mL (≈ 95.1 µM).
Regarding `CN(Cc1cccc(Cl)c1Cl)Cc1cc(=O)n(C)c(=O)n1C`, the MDR1-MDCK efflux ratio was found to be 0.829; the intrinsic clearance, human liver microsomes was 191 mL/min/kg; the intrinsic clearance, rat liver microsomes was 2760 mL/min/kg.
For `Cc1cc(C)n2nc(C)c(C(=O)NCCc3nnc(C)s3)c2n1` the same measures were 6.5, not above 4.74 mL/min/kg and 33.1 mL/min/kg.
Turning to `N#CCCCN1CCN(c2cc(C#N)ccn2)CC1`, the MDR1-MDCK efflux ratio came to 0.56; the intrinsic clearance, human liver microsomes is not above 4.74 mL/min/kg; the intrinsic clearance, rat liver microsomes was 180 mL/min/kg; the aqueous solubility turned out to be 41.2 µg/mL (≈ 162 µM).
The compound `N#Cc1nc(-c2ccccc2)oc1NCc1ccccc1` came in with an intrinsic clearance, human liver microsomes of 197 mL/min/kg and an intrinsic clearance, rat liver microsomes of 2470 mL/min/kg.

As a reminder, the aqueous solubility is how much of the substance goes into solution per volume.
